Assay results from patent publication US10799461B2 (priority 2004, dated 2020).

Experiments:
[1] = system: human breast cancer xenografts; test: Human breast cancer xenograft in nude mice, Paclitaxel minicells (Example 8); assay type: in vivo; details: 1×10^8 minicells or 400 μg free Paclitaxel, intravenously or intratumorally, days 15, 21, 26, 29 and 33
Experimental: Human breast adenocarcinoma cells (MDA-MB-468, ATCC; human mammary epithelial cells; non-phagocytic) were grown in tissue culture to full confluency in T-75 flasks in RPMI 1640 medium supplemented with 5% Bovine Calf Serum (GIBCO-BRL Life Technologies, Invitrogen Corporation, Carlsbad, Calif., USA) and glutamine (Invitrogen) in a humidified atmosphere of 95% air and 5% CO2 at 37° C. 1×10^6 cells in 50 uL serum-free media together with 50 uL growth factor reduced matrigel (BD Biosciences, Franklin Lakes, N.J., USA) were injected subcutaneously between the shoulder blades of each mouse using a 23-gauge needle. The tumors were measured twice a week using an electronic digital caliper (Mitutoyo, Japan, precision to 0.001) and mean tumor volume was calculated using the formula, length (mm)×width^2 (mm)×0.5=volume (mm^3). 16 days post-implantation, the tumors reached volumes between 50 mm^3 and 80 mm^3, and mice were randomized to seven different groups of 11 per group.
The experiment shown in example 7 was repeated using ^EGFRminicellsPaclitaxel as the experimental treatment. […]

[2] = cited from earlier work
[3] = system: MDA-MB-468 human breast adenocarcinoma cells; test: Colorimetric cytotoxicity (MTS) assay, minicell-mediated drug delivery; assay type: cell-based; details: MDA-MB-468 cells, within 6 days after treatment
Experimental: A colorimetric cytotoxicity assay (Promega; CellTiter 96 Aqueous One™) was used. […] MDA-MB 468 cells were seeded at 5×10^6 cells in T75 flasks and incubated for 48 hrs to obtain ˜1×10^7 cells/flask. The media was changed and cells were treated with 10^9 non-targetedminicellsDOX or ^EGFRMinicellsDOX. Free Doxorubicin (50 ng/ml) was also included as a positive control. The cells were incubated for 24 hrs, washed thoroughly with 3 changes of PBS and trypsinized. Viable cells were counted in a haemocytometer using the trypan blue exclusion method. 1×10^4 cells/ml per well were aliqouted into 24-well plates (6 wells per treatment) and incubated for 3, 4, 5, and 6 days with media changes everyday. MTS assay was performed at each time point according to the manufacturers instructions. Briefly, 100 μL of MTS reagent was added to each well and color development was monitored over 2.5 hrs to 4 hrs. 100 μL from each well was transferred to a 96-well plate and the absorbance was read at 490 nm.

[4] = Reaction at the tail vein injection site in xenograft mice (Example 7); assay type: in vivo, athymic nude mice
Experimental: The experiment was designed as follows. Group 1 (control) received no treatment. Group 2 (control) received free Doxorubicin (5 μg/gm of mouse body weight) intratumorally. This control was included to determine the effect of free Doxorubicin on tumor cells and to assess toxic side-effects. Group 3 (control) was the same as group 2, except that the Doxorubicin was administered intravenously. Group 4 (control) received the anti-O antigen/anti-EGFR BsAb and free Doxorubicin intravenously to show the effect of BsAb in the absence of minicells. […] Groups 7 and 8 received EGFR-targeted ^EGFRMinicellsDOX intravenously and intratumorally, respectively, to determine if receptor-targeted, drug-packaged minicells could effect tumor stabilization. […] Minicells were administered at a dose of 10^8 and all treatments were given on days 17, 24, 27 and 56 post-xenograft establishment. All measurements were performed by an investigator who was blinded to the treatments administered. Statistical analysis was performed by analysis of variance (ANOVA) and P<0.05 was considered to be statistically significant.

## CC(=O)O[C@H]1C(=O)[C@@]2(C)[C@H]([C@H](OC(=O)c3ccccc3)[C@]3(O)C[C@H](OC(=O)[C@H](O)[C@@H](NC(=O)c4ccccc4)c4ccccc4)C(C)=C1C3(C)C)[C@]1(OC(C)=O)CO[C@@H]1C[C@@H]2O [free paclitaxel, Paclitaxel]
[1]
  tumor stabilization/regression: negligible effect on tumor growth

## CC[C@]1(O)C[C@@H]2CN(CCc3c([nH]c4ccccc34)[C@@](C(=O)OC)(c3cc4c(cc3OC)N(C)[C@H]3[C@@](O)(C(=O)OC)[C@H](OC(C)=O)[C@]5(CC)C=CCN6CC[C@]43[C@@H]65)C2)C1 [Vinblastine]
[2]
  solubility in water: low solubility in water

## COc1cccc2c1C(=O)c1c(O)c3c(c(O)c1C2=O)C[C@@](O)(C(=O)CO)C[C@@H]3O[C@H]1C[C@H](N)[C@H](O)[C@H](C)O1 [free Doxorubicin, Doxorubicin]
[3]
  cell viability: about 30%
[4]
  reaction at the site of injection: severe reaction at the site of the injection
